Laboratory results taken from patent US20240383911A1, “AZAINDAZOLE MACROCYCLE COMPOUNDS AND USES THEREOF” (BROADENBIO CO., LTD, priority 2021, published 2024).

What was measured:
[1] = test system: Human Jurkat-E6-1 cells; assay: Detection of IL-2 production by Jurkat cells using ELISA; format: cell-based; conditions: anti-CD3/anti-CD28 stimulation 24 hours, read-out: Percentage of the amount of IL-2 secreted by compound treated vs DMSO-treated cells; for activity at 3 µM: tested compound 3.0 μM; for activity at 0.33 µM: tested compound 0.33 μM
Method: (§1) Tested compounds: compounds prepared in the Examples of this invention.
Human Jurkat-E6-1 cells were incubated with various concentrations of tested compounds for 30 minutes in a humidified incubator at 37° C. and 5% CO2. Cells were transferred to cell culture plates pre-coated with anti-human CD3 antibody, then soluble anti-human CD28 antibody was added, and cells were stimulated for 24 hours at 37° C. and 5% CO2 in a humidified incubator. The cell culture medium was collected after centrifugation, and was then transferred to a 96-well transparent microtiter plate (Thermo) pre-coated with anti-human IL-2 antibody, incubated at room temperature for 2 hours with gently shaking, washed with washing buffer for 4 times, and then followed the ELISA MAX Deluxe Set Human IL-2 (BioLegend) kit procedures, used a microplate reader (Molecular Device, i3X) to read the GD value at 450 nm. The best standard curve was selected by the microplate reader application software, and the corresponding concentration was calculated according to the GD value of the standard. Results are expressed as a percentage (%) of the amount of IL-2 secreted by compound-treated vs DMSO-treated cells.

[2] = molecular target: HPK1 (Homo sapiens, UniProt Q92918); assay: HPK1 kinase activity inhibition test (ADP-Glo, luminescence); format: biochemical; conditions: 2 μM ATP, 5 nM HPK1, read-out: IC50, inhibitory effects on HPK1 kinase activity
Sequence of HPK1 (Q92918 whole entry): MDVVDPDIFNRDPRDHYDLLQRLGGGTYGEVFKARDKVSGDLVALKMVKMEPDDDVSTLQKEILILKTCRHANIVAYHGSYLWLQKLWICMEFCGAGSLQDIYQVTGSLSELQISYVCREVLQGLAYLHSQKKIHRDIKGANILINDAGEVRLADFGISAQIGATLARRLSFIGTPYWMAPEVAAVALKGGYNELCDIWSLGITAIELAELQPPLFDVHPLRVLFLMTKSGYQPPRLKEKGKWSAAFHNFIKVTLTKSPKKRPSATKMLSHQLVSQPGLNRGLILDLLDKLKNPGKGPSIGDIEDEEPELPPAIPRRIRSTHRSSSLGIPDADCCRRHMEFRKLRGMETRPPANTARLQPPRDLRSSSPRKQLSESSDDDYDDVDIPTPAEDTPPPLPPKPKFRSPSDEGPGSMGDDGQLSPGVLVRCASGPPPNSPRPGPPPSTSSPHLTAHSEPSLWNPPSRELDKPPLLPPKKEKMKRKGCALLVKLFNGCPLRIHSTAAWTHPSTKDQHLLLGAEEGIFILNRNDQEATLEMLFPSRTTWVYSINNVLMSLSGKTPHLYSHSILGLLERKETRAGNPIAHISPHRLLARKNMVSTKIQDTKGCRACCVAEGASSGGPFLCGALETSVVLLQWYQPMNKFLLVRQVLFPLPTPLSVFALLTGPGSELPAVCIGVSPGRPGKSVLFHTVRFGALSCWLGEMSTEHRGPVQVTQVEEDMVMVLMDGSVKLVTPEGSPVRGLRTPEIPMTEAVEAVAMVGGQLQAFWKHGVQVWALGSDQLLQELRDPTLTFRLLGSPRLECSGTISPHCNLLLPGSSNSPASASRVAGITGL
Method: The kinase activity of HPK1 is manifested as activity of autophosphorylation and phosphorylation of downstream substrates. In the process of autophosphorylation, additional substrates are not required, and ATP is consumed to generate ADP. The amount of the product is measured by ADP-Glo reagent and luminescence method to reflect kinase activity.
as §1
Preparation of compound stock solution: dissolve the test compound in 100% DMSO to make a 10 mM stock solution;
Preparation of 4×Kinase Reaction Buffer:
Preparation of 2×HPK1 Kinase Solution:
Preparation of 4×ATP Mixture:
Dilute the stock solution of the test compound by 5 times with 100% DMSO, make a 4-fold equal dilution in a 96-well dilution plate, add 1 μL of the compound to 49 μL of kinase reaction buffer, and shake on a microplate shaker for 20 minutes. Transfer 2 μL of 2×HPK1 kinase solution to 384 reaction plate, add 1 μL of the test compound to the 384 reaction plate (Greiner, Cat #784075), centrifuge for 1 minute (1000 rpm/min), incubate at 25° C. for 10 minutes. Transfer 1 μL of the 4×ATP mixture to a 384 reaction plate, centrifuge for 1 minute (1000 rpm/min), and incubate at 25° C. for 60 minutes. In the reaction system, the final concentration of DMSO is 0.5%. Transfer 4 μL of ADP-Glo to a 384 reaction plate, centrifuge for 1 minute (1000 rpm/min), and incubate at 25° C. for 40 minutes. Transfer 8 μL detection solution to a 384 reaction plate, centrifuge for 1 minute (1000 rpm/min), and incubate at 25° C. for 40 minutes. The […] is read using a Biotek multi-function plate reader, and the IC50 (half inhibitory concentration) of the compound is obtained using a four-coefficient nonlinear fitting formula.

| SMILES | IC50 [2] [nM] | activity at 3 µM [1] [%] | activity at 0.33 µM [1] [%] | activity at 1 µM ([1]; tested compound 1.0 μM) [%] |
| --- | --- | --- | --- | --- |
| Fc1cccc2c1-c1cc3c(n[nH]c3cn1)-c1cnc(N3CCOCC3)c(c1)OCCCO2 [Compound 4, 16-fluoro-5-(morpholin-4-yl)-7,11-dioxa-4,19,22,23-tetraazapentacyclo[16.5.2.1^2,6.0^12,17.0^21,24]hexacosa-1(23),2(26),3,5,12,14,16,18,20,24-decaene] | 5 to 50 | 801 |  |  |
| CN1CCN(c2ccc3cc2OCCCCOc2cccc(F)c2-c2cc4c-3n[nH]c4cn2)CC1 [Compound 7, 17-fluoro-5-(4-methylpiperazin-1-yl)-7,12-dioxa-20,23,24-triazapentacyclo[17.5.2.1^2,6.0^13,18.0^22,25]heptacosa-1(24),2(27),3,5,13,15,17,19,21,25-decaene] | 5 to 50 | 404 |  |  |
| CN1CCN(c2ccc3cc2OCCCOCc2cccc(F)c2-c2cc4c-3n[nH]c4cn2)CC1(C)C [Compound 17, 17-fluoro-5-(3,3,4-trimethylpiperazin-1-yl)-7,11-dioxa-20,23,24-triazapentacyclo[17.5.2.1^2,6.0^13,18.0^22,25]heptacosa-1(24),2,4,6(27),13(18),14,16,19,21,25-decaene] | ≤ 5 |  | 439 |  |
| CN1C2CCC1CN(c1ccc3cc1OCCCOCc1cccc(F)c1-c1cc4c-3n[nH]c4cn1)C2 [Compound 18, 17-fluoro-5-{8-methyl-3,8-diazabicyclo[3.2.1]octan-3-yl}-7,11-dioxa-20,23,24-triazapentacyclo[17.5.2.1^2,6.0^13,18.0^22,25]heptacosa-1(24),2,4,6(27),13(18),14,16,19,21,25-decaene] | ≤ 5 |  | 486 |  |
| CN1CCN(c2ccc3cc2OCCCCOCc2cccc(F)c2-c2cc4c-3n[nH]c4cn2)CC1 [Compound 100, 18-fluoro-5-(4-methylpiperazin-1-yl)-7,12-dioxa-21,24,25-triazapentacyclo[18.5.2.1^2,6.0^14,19.0^23,26]octacosa-1(25),2(28),3,5,14(19),15,17,20,22,26-decaene] | 5 to 50 |  |  | 235 |
| CN1CCN(c2ccc3cc2OCCCCCc2cccc(F)c2-c2cc4c-3n[nH]c4cn2)CC1 [Compound 101, 17-fluoro-5-(4-methylpiperazin-1-yl)-7-oxa-20,23,24-triazapentacyclo[17.5.2.1^2,6.0^13,18.0^22,25]heptacosa-1(24),2(27),3,5,13(18),14,16,19,21,25-decaene] | ≤ 5 |  | 257 |  |
| Fc1cccc2c1-c1cc3c(n[nH]c3cn1)-c1ccc(N3CCC(N4CCOCC4)CC3)c(c1)OCCCO2 [Compound 104, 16-fluoro-5-[4-(morpholin-4-yl)piperidin-1-yl]-7,11-dioxa-19,22,23-triazapentacyclo[16.5.2.1^2,6.0^12,17.0^21,24]hexacosa-1(23),2,4,6(26),12(17),13,15,18,20,24-decaene] | ≤ 5 |  | 273 |  |
| Fc1cccc2c1-c1cc3c(n[nH]c3cn1)-c1ccc(N3CCC(N4CCOCC4)CC3)c(c1)OCCCOC2 [Compound 105, 17-fluoro-5-[4-(morpholin-4-yl)piperidin-1-yl]-7,11-dioxa-20,23,24-triazapentacyclo[17.5.2.1^2,6.0^13,18.0^22,25]heptacosa-1(24),2,4,6(27),13(18),14,16,19,21,25-decaene] | ≤ 5 |  | 313 |  |

Continued, in another order:

| IC50 [2] [nM] | SMILES | activity at 3 µM [1] [%] | activity at 0.33 µM [1] [%] | activity at 1 µM ([1]; tested compound 1.0 μM) [%] |
| --- | --- | --- | --- | --- |
| ≤ 5 | CN1CCN(c2ccc3cc2OCCCOc2cccc(F)c2-c2cc4c-3n[nH]c4cn2)C[C@@H]1CO [Compound 130, [(2R)-4-{16-fluoro-7,11-dioxa-19,22,23-triazapentacyclo[16.5.2.1^2,6.0^12,17.0^21,24]hexacosa-1(23),2,4,6(26),12(17),13,15,18,20,24-decaen-5-yl}-1-methylpiperazin-2-yl]methanol] |  |  |  |
| ≤ 5 | CN1CCN(c2ccc3cc2OCCCOc2cccc(F)c2-c2cc4c-3n[nH]c4cn2)C[C@H]1CO [Compound 131, [(2S)-4-{16-fluoro-7,11-dioxa-19,22,23-triazapentacyclo[16.5.2.1^2,6.0^12,17.0^21,24]hexacosa-1(23),2,4,6(26),12(17),13,15,18,20,24-decaen-5-yl}-1-methylpiperazin-2-yl]methanol] |  |  |  |
| ≤ 5 | O=C1OC[C@H]2CN(c3ccc4cc3OCCCOc3cccc(F)c3-c3cc5c-4n[nH]c5cn3)CCN12 [Compound 134, (8aR)-7-{16-fluoro-7,11-dioxa-19,22,23-triazapentacyclo[16.5.2.1^2,6.0^12,17.0^21,24]hexacosa-1(23),2,4,6(26),12(17),13,15,18,20,24-decaen-5-yl}-hexahydro-1H-[1,3]oxazolo[3,4-a]pyrazin-3-one] |  |  |  |
| ≤ 5 | O=C1OC[C@@H]2CN(c3ccc4cc3OCCCOc3cccc(F)c3-c3cc5c-4n[nH]c5cn3)CCN12 [Compound 135, (8aS)-7-{16-fluoro-7,11-dioxa-19,22,23-triazapentacyclo[16.5.2.1^2,6.0^12,17.0^21,24]hexacosa-1(23),2,4,6(26),12(17),13,15,18,20,24-decaen-5-yl}-hexahydro-1H-[1,3]oxazolo[3,4-a]pyrazin-3-one] |  |  |  |
| ≤ 5 | CN1C[C@H]2CN(c3ccc4cc3OCCCOc3cccc(F)c3-c3cc5c-4n[nH]c5cn3)CCN2CC1=O [Compound 137, (9aR)-8-{16-fluoro-7,11-dioxa-19,22,23-triazapentacyclo[16.5.2.1^2,6.0^12,17.0^21,24]hexacosa-1(23),2,4,6(26),12(17),13,15,18,20,24-decaen-5-yl}-2-methyl-octahydro-1H-[1,4]diazino[1,2-a]pyrazin-3-one] |  |  |  |
| ≤ 5 | CN1C[C@@H]2CN(c3ccc4cc3OCCCOc3cccc(F)c3-c3cc5c-4n[nH]c5cn3)CCN2CC1=O [Compound 138, (9aS)-8-{16-fluoro-7,11-dioxa-19,22,23-triazapentacyclo[16.5.2.1^2,6.0^12,17.0^21,24]hexacosa-1(23),2,4,6(26),12(17),13,15,18,20,24-decaen-5-yl}-2-methyl-octahydro-1H-[1,4]diazino[1,2-a]pyrazin-3-one] |  |  |  |
| ≤ 5 | CN1C[C@@H]2C[C@H]1CN2c1ccc2cc1OCCCOc1cccc(F)c1-c1cc3c-2n[nH]c3cn1 [Compound 140, 16-fluoro-5-[(1S,4S)-5-methyl-2,5-diazabicyclo[2.2.1]heptan-2-yl]-7,11-dioxa-19,22,23-triazapentacyclo[16.5.2.1^2,6.0^12,17.0^21,24]hexacosa-1(23),2,4,6(26),12(17),13,15,18,20,24-decaene] |  |  |  |
| ≤ 5 | CN1C[C@H]2C[C@@H]1CN2c1ccc2cc1OCCCOc1cccc(F)c1-c1cc3c-2n[nH]c3cn1 [Compound 141, 16-fluoro-5-[(1R,4R)-5-methyl-2,5-diazabicyclo[2.2.1]heptan-2-yl]-7,11-dioxa-19,22,23-triazapentacyclo[16.5.2.1^2,6.0^12,17.0^21,24]hexacosa-1(23),2,4,6(26),12(17),13,15,18,20,24-decaene] |  |  |  |
| 5 to 50 | Fc1cccc2c1-c1cc3c(n[nH]c3cn1)-c1ccc(N3C[C@@H]4C[C@H]3CN4C3COC3)c(c1)OCCCO2 [Compound 142, 16-fluoro-5-[(1S,4S)-5-(oxetan-3-yl)-2,5-diazabicyclo[2.2.1]heptan-2-yl]-7,11-dioxa-19,22,23-triazapentacyclo[16.5.2.1^2,6.0^12,17.0^21,24]hexacosa-1(23),2,4,6(26),12(17),13,15,18,20,24-decaene] |  |  |  |
| ≤ 5 | CN1CCN(c2ccc3cc2OCCCOc2cccc(F)c2-c2cc4c-3n[nH]c4cn2)CC1(C)C [Compound 143, 16-fluoro-5-(3,3,4-trimethylpiperazin-1-yl)-7,11-dioxa-19,22,23-triazapentacyclo[16.5.2.1^2,6.0^12,17.0^21,24]hexacosa-1(23),2,4,6(26),12(17),13,15,18,20,24-decaene] |  |  |  |
